Measured values taken from US20250057928A1, “VACCINE COMPOSITION FOR INDUCING ANTI-IL-23 ANTIBODY” (OSAKA UNIVERSITY, priority 2021, published 2025).
Where no end group is shown, it is not given here.

System: epitope peptide
Test: Antibody titer (GMT) of serum of hairless rats, ELISA
Format: in vivo, rat
Conditions: 1 mg/body intradermal 3 times at two-week intervals, serum at 6 weeks
Description: AJP001 conjugated peptide having one of the B cell epitope sequences of SEQ ID NOs: 1-5 was dissolved in physiological saline and intradermally administered twice to BALB/c mice (female, 6-week-old, N=5-6) at 0.5 mg/body at 2-week intervals. Blood was collected before administration and 5 weeks after the initial administration, and the antibody titer against each AJP001 conjugated peptide and the binding ability to recombinant mouse IL-23 protein (rmIL-23) were measured by the ELISA method. Specifically, a 96-well plate immobilized with an epitope peptide dissolved at 10 μg/mL in carbonate buffer was blocked with 5% skim milk/PBS, and then serum serially diluted with 5% skim milk/PBS was added, and the mixture was left standing at 4° C. overnight. […] After washing the wells with PBS-T, TMB solution (SIGMA) was added, the wells were allowed to stand for 30 min in the dark, the reaction was stopped by adding 0.5M H2SO4, and the absorbance at 450 nm was measured using a plate reader. The serum dilution rate that gave 1/2 (OD=1.75) of the maximum absorbance was defined as the antibody titer, and the geometric mean titer: GMT was calculated from the individual values. Binding to IL-23 protein was measured by the ELISA method in the same manner as the antibody titer, using rmIL-23 (Antibodies-online GmbH) as the solid-phased antigen and goat serum for blocking. […]

In the case of “SEQ ID NO 2: AJP001-Ahx-B cell epitope peptide conjugate; epitope SSSQQWQR (mouse 152-159) (not fully specified (N-terminus); listed as Mus musculus)”, the “antibody titer (GMT)” value is reported as “increase”.
